The test system of data set [1] is classical swine fever virus (CSFV) strain Alfort 187. Kind of data set: microbe, parasite or virus in culture. The data set is classed as cell-based. Particulars: PK-15, in Sus scrofa, 48 h.
Data set [2] relates to Bovine viral diarrhea (BVD) virus. Kind of data set: Anti-BVDV CPE inhibition assay in MDBK cells. Particulars: for EC50: Bovine viral diarrhea virus isolates and strains, MDBK, in Bos taurus, 96 h; for SI (selectivity index, ratio of CC50 and EC50): CC50/EC50, MDBK cells, BVD virus.
Data set [3] can be described thus: Cytotoxicity in MDBK cells (no BVD virus added). Particulars: bovine, MDBK cells (Madin-Darby bovine kidney), no virus added.
In the next data set the test system is BVDV type 1 strain SD1. Particulars: 2 mg/kg i.v. 3x daily.

Bounds are passed on as bounds.

`Cc1nc(Cn2ccc3nc(-c4ccccc4F)nc-3c2)sc1-c1ccccc1` [CPD-29, 2-((2-(2-fluorophenyl)-5H-imidazo[4,5-c]pyridin-5-yl)methyl)-4-methyl-5-phenylthiazole]: the EC50 (usually the concentration at which the effect is half-maximal) in data set [1] is 2.8 ± 1.4 µM. In addition, in data set [2], the EC50 was found to be 0.257 ± 0.107 µM; the “SI (selectivity index, ratio of CC50 and EC50)” value is given as over 195. Also, the CC50 (usually the concentration giving 50% cytotoxicity) at 4 days in data set [3] was over 50 µM.
As for `Cc1scc(-c2nc3ccn(Cc4cc(-c5cc(F)ccc5F)no4)cc-3n2)c1C` [CPD-49, 3-(2,5-difluorophenyl)-5-((2-(4,5-dimethylthiophen-3-yl)-5H-imidazo[4,5-c]pyridin-5-yl)methyl)isoxazole], in data set [2], the EC50 is 0.409 µM; the “SI (selectivity index, ratio of CC50 and EC50)” value came to 76. The molecule also registered a 50% cytotoxic concentration (CC50) at 4 days in data set [3] of 31 µM.
For `Cc1ccc2nc(Cn3ccc4cc(-c5cnn(C)c5C)nc-4c3)sc2c1` [Compound XV, 2-{[2-(1,5-dimethyl-1H-pyrazol-4-yl)-6H-pyrrolo[2,3-c]pyridin-6-yl]methyl}-6-methyl-1,3-benzothiazole], in that order: 0.016 ± 0.001 µM, 1063 and 17 µM.
For `COc1ncccc1-c1cc2ccn(Cc3nc4cc(C)ccc4o3)cc-2n1` [Compound X, 2-((2-(2-methoxypyridin-3-yl)-6H-pyrrolo[2,3-c]pyridin-6-yl)methyl)-5-methyl-1,3-benzoxazole], in that order: 0.007 ± 0.004 µM, 571 and 4 µM.
For `OCCOc1ccc(F)c(-c2nc3ccn(Cc4cc(-c5cc(F)ccc5F)no4)cc-3n2)c1` [CPD-42, 2-(3-(5-((3-(2,5-difluorophenyl)isoxazol-5-yl)methyl)-5H-imidazo[4,5-c]pyridin-2-yl)-4-fluorophenoxy)ethan-1-ol], in that order: 0.46 ± 0.048 µM, over 109 and over 50 µM.
As to `COc1ncccc1-c1cc2cn(Cn3nnc4ccccc43)ccc-2n1` [Compound XXIII, 1-((2-(2-methoxypyridin-3-yl)-5H-pyrrolo[3,2-c]pyridin-5-yl)methyl)-1H-benzotriazole], in data set [2], the response was half-maximal at 0.082 µM (EC50); the “SI (selectivity index, ratio of CC50 and EC50)” value came out at 390. Further, half-maximal cytotoxicity in data set [3] (CC50 at 4 days) was put at 32 µM.
For `COc1ncccc1-c1nc2ccn(Cc3nc4cc(C)ccc4o3)cc-2n1` [CPD-16, 2-((2-(2-methoxypyridin-3-yl)-5H-imidazo[4,5-c]pyridin-5-yl)methyl)-5-methylbenzo[d]oxazole], in that order: 0.117 µM, over 427 and over 50 µM.
With `CN(C)c1cccc(-c2nc3ccn(Cc4cc(-c5cc(F)ccc5F)no4)cc-3n2)c1` [CPD-44, 3-(5-((3-(2,5-difluorophenyl)isoxazol-5-yl)methyl)-5H-imidazo[4,5-c]pyridin-2-yl)-N,N-dimethylaniline], in data set [2], the 50% effective concentration (EC50) turned out to be 0.088 ± 0.017 µM; the “SI (selectivity index, ratio of CC50 and EC50)” value is reported as over 568. Besides, the CC50 at 4 days in data set [3] was over 50 µM.
On to `Cc1c(-c2cc3cn(Cn4nnc5ccccc54)ccc-3n2)cnn1C` [Compound XXIV, 1-((2-(1,5-dimethyl-1H-pyrazol-4-yl)-5H-pyrrolo[3,2-c]pyridin-5-yl)methyl)-1H-benzotriazole], for which, in data set [2], the EC50 amounted to 0.076 ± 0.019 µM; the “SI (selectivity index, ratio of CC50 and EC50)” value is 158. In data set [3], this molecule came in with a CC50 at 4 days of 12 µM.
On to `Cc1ccc2nc(Cn3ccc4nc(-c5ccccc5F)nc-4c3)sc2c1` [CPD-22, 2-((2-(2-fluorophenyl)-5H-imidazo[4,5-c]pyridin-5-yl)methyl)-6-methylbenzo[d]thiazole], for which, in data set [2], a half-maximal effect (EC50) was put at 0.019 ± 0.005 µM; the “SI (selectivity index, ratio of CC50 and EC50)” value is listed as over 5263. In addition, in data set [3], the CC50 at 4 days was over 100 µM.
For `Cc1ccc2nc(Cn3ccc4nc(-c5cnn(C)c5C)cc-4c3)sc2c1` [Compound XXXII, 2-{[2-(1,5-dimethyl-1H-pyrazol-4-yl)-5H-pyrrolo[3,2-c]pyridin-5-yl]methyl}-6-methyl-1,3-benzothiazole], in that order: 0.012 ± 0.008 µM, 1750 and 21 µM.
As to `COc1ncccc1-c1cc2ccn(Cc3nc4ccc(C)cc4s3)cc-2n1` [Compound XIV, 2-{[2-(2-methoxypyridin-3-yl)-6H-pyrrolo[2,3-c]pyridin-6-yl]methyl}-6-methyl-1,3-benzothiazole], in data set [2], the EC50 was 0.017 µM; the “SI (selectivity index, ratio of CC50 and EC50)” value was 235. Besides, in data set [3], the 50% cytotoxic concentration (CC50) at 4 days stood at 4 µM.
For `COc1ncccc1-c1cc2cn(Cc3nc4cc(C)ccc4o3)ccc-2n1` [Compound XXVII, 2-((2-(2-methoxypyridin-3-yl)-5H-pyrrolo[3,2-c]pyridin-5-yl)methyl)-5-methyl-1,3-benzoxazole], in that order: 0.016 ± 0.001 µM, 1313 and 21 µM.
For `COc1ccccc1-c1nc2ccn(Cn3nnc4ccccc43)cc-2n1` [CPD-20, 1-((2-(2-methoxyphenyl)-5H-imidazo[4,5-c]pyridin-5-yl)methyl)-1H-benzo[d][1,2,3]triazole], in that order: 0.087 ± 0.003 µM, over 575 and over 50 µM.
Regarding `Cc1ccc2nc(Cn3ccc4nc(-c5cc(OCCO)ccc5F)cc-4c3)sc2c1` [Compound XXIX, 2-(4-fluoro-3-(5-((6-methyl-1,3-benzothiazol-2-yl)methyl)-5H-pyrrolo[3,2-c]pyridin-2-yl)phenoxy)ethan-1-ol], in data set [2], it took 0.037 ± 0.03 µM to reach a half-maximal effect (EC50); the “SI (selectivity index, ratio of CC50 and EC50)” value is listed as 432. Moreover, it took 16 µM to reach half-maximal cytotoxicity in data set [3] (CC50 at 4 days).
Take `Cc1ccc(-c2nc3ccn(Cc4cc(-c5cc(F)ccc5F)no4)cc-3n2)s1` [CPD-47, 3-(2,5-difluorophenyl)-5-((2-(5-methylthiophen-2-yl)-5H-imidazo[4,5-c]pyridin-5-yl)methyl)isoxazole]: in data set [2], the 50% effective concentration (EC50) was 0.341 ± 0.025 µM; the “SI (selectivity index, ratio of CC50 and EC50)” value is 70. Also, the midpoint of cytotoxicity in data set [3], the CC50 at 4 days, lay at 24 µM.
For `COc1ccc2oc(Cn3ccc4nc(-c5ccccc5F)nc-4c3)nc2c1` [CPD-33, 2-((2-(2-fluorophenyl)-5H-imidazo[4,5-c]pyridin-5-yl)methyl)-5-methoxybenzo[d]oxazole], in that order: 0.447 µM, over 112 and over 50 µM.
In the case of `COc1ccccc1-c1cc2cn(Cn3nnc4ccccc43)ccc-2n1` [Compound XX, 1-{[2-(2-methoxyphenyl)-5H-pyrrolo[3,2-c]pyridin-5-yl]methyl}-1H-benzotriazole], in data set [2], it took 0.082 µM to reach a half-maximal effect (EC50); the “SI (selectivity index, ratio of CC50 and EC50)” value came out at 476. Also, the CC50 at 4 days in data set [3] amounted to 39 µM.
For `Cc1ccc2nc(Cn3ccc4cc(-c5ccccc5CO)nc-4c3)[nH]c2c1` [Compound XVI, (2-(6-((6-methyl-1H-benzoimidazol-2-yl)methyl)-6H-pyrrolo[2,3-c]pyridin-2-yl)phenyl)methanol], in that order: 0.294 ± 0.07 µM, 75 and 22 µM.
For `Cc1ccc2nc(Cn3ccc4nc(-c5ccccc5F)cc-4c3)sc2c1` [Compound XXVIII, 2-{[2-(2-fluorophenyl)-5H-pyrrolo[3,2-c]pyridin-5-yl]methyl}-6-methyl-1,3-benzothiazole], in that order: 0.016 µM, 188 and 3 µM.
For `Cc1cc(-c2nc3ccn(Cc4cc(-c5cc(F)ccc5F)no4)cc-3n2)cs1` [CPD-48, 3-(2,5-difluorophenyl)-5-((2-(5-methylthiophen-3-yl)-5H-imidazo[4,5-c]pyridin-5-yl)methyl)isoxazole], in that order: 0.395 ± 0.022 µM, 68 and 27 µM.
For `Fc1ccccc1-c1nc2ccn(Cc3nc4ccccc4s3)cc-2n1` [CPD-24, 2-((2-(2-fluorophenyl)-5H-imidazo[4,5-c]pyridin-5-yl)methyl)benzo[d]thiazole], in data set [2], the EC50 was 0.299 ± 0.091 µM; the “SI (selectivity index, ratio of CC50 and EC50)” value was over 167. In data set [3], the CC50 at 4 days is over 50 µM.
For `COc1ccccc1-c1nc2ccn(Cc3nc4ccc(C)cc4s3)cc-2n1` [CPD-18, 2-((2-(2-methoxyphenyl)-5H-imidazo[4,5-c]pyridin-5-yl)methyl)-6-methylbenzo[d]thiazole], in that order: 0.002 ± 0.001 µM, 10000 and 20 µM.
For `Fc1ccccc1-c1cc2ccn(Cn3nnc4ccccc43)cc-2n1` [Compound I, 1-{[2-(2-fluorophenyl)-6H-pyrrolo[2,3-c]pyridin-6-yl]methyl}-1H-benzotriazole], the “Antibody titre of seroconverted calf on Day 14” value in the data set with BVDV type 1 strain SD1 (7 days, Day 14) is on record as 16. The “Calves seroconverted (anti-BVDV neutralizing antibodies) by Day 14” value with BVDV type 1 strain SD1 (7 days, Day 14 post challenge) is recorded as 1 out of 5. Moreover, the “Average anti-BVDV neutralising antibody titre on Day 28” value in the data set on BVDV type 1 strain SD1 (7 days, Day 28) was determined as 64. For the same molecule, the “Haematology and clinical chemistry versus control group” value in the data set with BVDV type 1 strain SD1 (calves, 7 days, Day 0, 7, 14, 21, 28) is “did not reveal any difference between both treatment groups”. Further, the “Adverse drug reactions on daily clinical monitoring” value with BVDV type 1 strain SD1 (calves, 7 days, Day 0 to Day 28) is listed as “No signs of adverse drug reactions were observed”. Besides, the “BVDV virus isolation from buffy coat samples during treatment” value in the data set with BVDV type 1 strain SD1 (calves, Day 0 to Day 6) was “could not be detected”. In addition, in data set [2], a half-maximal effect (EC50) was put at 0.009 ± 0.008 µM; the “SI (selectivity index, ratio of CC50 and EC50)” value is recorded as 2444. Besides, the CC50 at 4 days in data set [3] was found to be 22 µM.

Source of the values: patent publication US12577242B2, “Pyrrolopyridine and imidazopyridine antiviral compounds” (KATHOLIEKE UNIVERSITEIT LEUVEN, priority 2020, dated 2026).
